Laboratory results published in patent US11993594B2, “IRAK inhibitors and method for making and using” (Rigel Pharmaceuticals, Inc., priority 2016, dated 2024).
Read-outs that look alike come from different tables or passages of the source.

What was measured:
[1] = system: LPS induced IL-23 (p19/p40) in DC cells; assay: IL23-p19 ELISA, dendritic (DC) cells differentiated from human PBMC, LPS stimulated; format: cell-based; settings: LPS 1 μg/ml, 18 hours, 10 pt
Outline: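 Human PBMC-derived dendritic cells (7 days GM-CSF 100 ng/ml plus IL-4 20 ng/ml, then primed 24 h with IFNγ 50 ng/ml) pre-incubated 1 h with compound, then stimulated 18 h at 37 °C with LPS 1 μg/ml. Supernatant IL-23 measured by sandwich chemiluminescent ELISA (anti-p19 capture, anti-p40 detection); cytotoxicity by CellTiter-Glo.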

[2] = system: LPS Induced IL23p19 in THP-1 Cells; assay: LPS Induced IL23p19 in THP-1 Cells (with IFNγ Primed) Assay; format: cell-based, human; settings: THP-1 cells primed with IFNγ 50 ng/mL, LPS 1 ug/mL, 18 hours, 10 pt, read-out: IL23-p19 ELISA, THP1-IFNγ, LPS, 10 pt EC50
Outline: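 THP-1 cells (50K/well) are primed with IFNγ at 50 ng/mL for about 18 h. They are then pre-treated with compound for 1 h and stimulated with LPS at 1 ug/mL final for 18 h at 37 °C. Secreted IL-23p19 is measured by chemiluminescent sandwich ELISA and EC50 is derived by curve fitting, with Cell Titer Glo as a viability counter-screen.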

Compound	EC50 ([1]; Table 1, IFNγ 50 ng/ml) [nM]	EC50 ([2]; Homo sapiens, Table 1) [nM]	EC50 ([1]; Table 3, IFNγ 50 ng/ml) [nM]	EC50 ([2]; Table 3) [nM]
O=C(Nc1cn([C@H]2C[C@@H](O)C2)nc1-c1cnccn1)c1coc(-c2cn[nH]c2)n1 [Compound I-38, N-(1-((1s,3s)-3-hydroxycyclobutyl)-3-(pyrazin-2-yl)-1H-pyrazol-4-yl)-2-(1H-pyrazol-4-yl)oxazole-4-carboxamide]	39.9	2.6	–	–
N-(1-(2-(2-methoxyethoxy)ethyl)-3-(pyridin-2-yl)-1H-pyrazol-4-yl)-2-(1H-pyrazol-4-yl)oxazole-4-carboxamide [Compound I-24]	–	–	217	238
